The source of these data is ChEMBL document CHEMBL4808208, “Hepatoselective Dihydroquinolizinone Bis-acids for HBsAg mRNA Degradation” (ACS Med Chem Lett, 2021).

pIC50: −log10 of the molar value. Values joined by “and” are separate entries in the source; they are usually repeats but may differ in a detail not shown here. Identical values can stand only once. Active and inactive are the calls of the source. The rule behind the calls is not given here. Bounds are passed on as bounds.

The nature of data set [1]: Apparent permeability across apical to basolateral side in MDCK-MDR1 cells at 1 uM measured after 120 mins by LC-MS/MS analysis. The class given is ADME, cell-based, Canis lupus familiaris. The settings on record: dog.
Data set [2] in a line: Cytotoxicity against human HepG2.2.15 cells assessed as reduction in cell viability measured after 4 days by CellTiter-Glo reagent based assay. Also on record: species or system HepG2 2.2.15. The settings on record: time 4 day.
A short description of data set [3]: Apparent permeability across basolateral to apical side in MDCK-MDR1 cells at 1 uM measured after 120 mins by LC-MS/MS analysis. The class given is ADME, cell-based, Canis lupus familiaris. Particulars: dog.
A further data set relates to Hepatitis B virus. The data set can be described thus: Antiviral activity against Hepatitis B virus infected in human HepG2.2.15 cells assessed as reduction in HBV pregenomic mRNA level at 1 uM measured after 5 days by Northern blot analysis. The settings on record: time 5.0 day. The class given is functional, organism-based.
Data set [4] deals with Terminal nucleotidyltransferase 4B (Homo sapiens) (UniProt Q8NDF8). Nature of the data set: Inhibition of Myc-DDK-tagged human PAPD5 expressed in HEK293 cells assessed as inhibition of poly-adenylation reaction using P32-labeled RNA oligonucleotides (5'-GCCUUUCAUCUCUAACUGCGAAAAAAAAAA-3') as substrate measured for 20 mins by phosphor imaging analysis. The settings on record: dose 0.37-10 µM.

A short description of data set [5]: Efflux ratio of apparent permeability in MDCK-MDR1 cells at 1 uM after 120 mins by LC-MS/MS analysis. Particulars: dog. The class given is ADME, cell-based, Canis lupus familiaris.
A short description of data set [6]: Metabolic stability in mouse liver microsomes assessed as half life preincubated with compound for 10 mins followed by NADPH regenerating system addition and measured for 60 mins by LC/MS-MS analysis. The class given is ADME, Microsome. Particulars: time 70 min. Background: Liver microsomes are vesicles of endoplasmic reticulum, rich in cytochrome P450 enzymes.

A short description of data set [7]: Apparent permeability of the compound across basolateral to apical side in human Caco-2 cells at 10 uM incubated for 1 hr. The class given is ADME, cell-based. For orientation: Caco-2 monolayers are a common model of the intestinal barrier.
Data set [8] is described as follows: Efflux ratio of apparent permeability in human Caco-2 cells at 10 uM incubated for 1 hr. The class given is ADME, cell-based.
Another data set addresses T1, Cytochrome P450 1A2 (Homo sapiens, UniProt P05177).
T1 sequence (P05177 whole entry): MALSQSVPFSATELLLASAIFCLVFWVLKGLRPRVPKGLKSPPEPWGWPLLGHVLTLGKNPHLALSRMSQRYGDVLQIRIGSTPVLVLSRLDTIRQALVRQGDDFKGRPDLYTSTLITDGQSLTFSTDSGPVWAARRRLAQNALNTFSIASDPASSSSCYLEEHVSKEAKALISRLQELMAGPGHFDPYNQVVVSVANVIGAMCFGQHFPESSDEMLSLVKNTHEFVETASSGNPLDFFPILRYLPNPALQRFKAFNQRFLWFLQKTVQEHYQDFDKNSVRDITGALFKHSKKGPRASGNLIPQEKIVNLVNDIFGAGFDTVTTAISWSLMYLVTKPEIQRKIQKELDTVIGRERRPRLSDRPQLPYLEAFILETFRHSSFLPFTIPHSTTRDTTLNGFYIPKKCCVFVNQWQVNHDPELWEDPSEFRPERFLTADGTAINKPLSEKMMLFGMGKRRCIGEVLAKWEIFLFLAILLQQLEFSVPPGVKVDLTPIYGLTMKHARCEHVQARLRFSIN
Nature of the data set: Inhibition of CYP1A2 in human liver microsomes using phenacetin as substrate preincubated for 5 mins followed by NADPH addition by LC-MS/MS analysis. The class given is ADME.

For a further data set, the target named is Cytochrome P450 2C9 (Homo sapiens, UniProt P11712). Nature of the data set: Inhibition of CYP2C9 in human liver microsomes using tolbutamide as substrate preincubated for 5 mins followed by NADPH addition by LC-MS/MS analysis. The class given is ADME.
Another data set concerns the target Cytochrome P450 2E1 (Homo sapiens, UniProt P05181). Nature of the data set: Inhibition of CYP2E1 in human liver microsomes using chlorzoxazone as substrate preincubated for 5 mins followed by NADPH addition by LC-MS/MS analysis. The class given is ADME.
The target in another data set is Cytochrome P450 3A4 (Homo sapiens, UniProt P08684). Nature of the data set: Inhibition of CYP3A4 in human liver microsomes using midazolam as substrate preincubated for 5 mins followed by NADPH addition by LC-MS/MS analysis. The class given is ADME.
A short description of data set [9]: Clearance in CD-1 mouse at 3 mg/kg, iv measured for 24 hrs by LC-MS/MS analysis. The class given is ADME, organism-based. The settings on record: in vivo.
Data set [10] in a line: Half life in CD-1 mouse plasma at 3 mg/kg, iv measured for 24 hrs by LC-MS/MS analysis. The class given is ADME, organism-based.
Data set [11] is described as follows: Half life in CD-1 mouse liver at 8 mg/kg, po measured for 24 hrs by LC-MS/MS analysis. The class given is ADME, organism-based.
Data set [12] is described as follows: Cmax in CD-1 mouse liver at 8 mg/kg, po measured for 24 hrs by LC-MS/MS analysis. The class given is ADME, organism-based. Also on record: route oral, dose 8 mg/kg, time 24 hrs.
Data set [13] can be described thus: AUC (last) in CD-1 mouse plasma at 8 mg/kg, po measured for 24 hrs by LC-MS/MS analysis. The class given is ADME, organism-based. Also noted: route oral, dose 8 mg/kg, time 24 hrs.
A short description of data set [14]: Drug concentration in CD-1 mouse liver at 8 mg/kg, po measured after 30 mins by LC-MS/MS analysis. The class given is ADME, organism-based. The settings on record: read-out: Ct.
The nature of data set [15]: Drug concentration in CD-1 mouse liver at 8 mg/kg, po measured after 1 hr by LC-MS/MS analysis. The class given is ADME, organism-based. Particulars: read-out: Ct.
Data set [16] can be described thus: Drug concentration in CD-1 mouse liver at 8 mg/kg, po measured after 4 hrs by LC-MS/MS analysis. The class given is ADME, organism-based. Particulars: read-out: Ct.
A short description of data set [17]: Ratio of Cmax in liver to plasma in CD-1 mouse at 8 mg/kg, po by LC-MS/MS analysis. The class given is ADME, organism-based.
The nature of data set [18]: Ratio of AUC(last) in liver to plasma in CD-1 mouse at 8 mg/kg, po by LC-MS/MS analysis. The class given is ADME, organism-based.
Data set [19] deals with T2, Solute carrier organic anion transporter family member 1B1 (Homo sapiens, UniProt Q9Y6L6).
T2 sequence (Q9Y6L6 whole entry): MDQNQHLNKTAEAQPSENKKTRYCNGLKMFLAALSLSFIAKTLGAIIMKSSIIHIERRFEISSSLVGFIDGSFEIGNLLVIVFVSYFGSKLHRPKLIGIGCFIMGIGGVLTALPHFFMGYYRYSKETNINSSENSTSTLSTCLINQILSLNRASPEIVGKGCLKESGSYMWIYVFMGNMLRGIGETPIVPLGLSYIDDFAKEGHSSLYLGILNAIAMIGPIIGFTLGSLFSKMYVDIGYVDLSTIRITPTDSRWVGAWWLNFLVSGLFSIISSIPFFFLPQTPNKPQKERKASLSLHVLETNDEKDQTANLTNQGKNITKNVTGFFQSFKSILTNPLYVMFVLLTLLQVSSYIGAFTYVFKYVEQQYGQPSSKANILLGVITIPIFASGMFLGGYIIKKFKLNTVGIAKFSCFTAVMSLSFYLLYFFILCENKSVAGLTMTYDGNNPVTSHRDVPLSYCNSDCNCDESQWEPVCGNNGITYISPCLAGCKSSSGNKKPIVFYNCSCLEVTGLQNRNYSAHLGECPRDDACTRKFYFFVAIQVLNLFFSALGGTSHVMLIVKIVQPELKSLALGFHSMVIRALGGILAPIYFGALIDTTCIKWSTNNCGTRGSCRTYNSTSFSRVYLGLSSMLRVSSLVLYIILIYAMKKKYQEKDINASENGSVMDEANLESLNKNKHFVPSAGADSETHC
The data set can be described thus: Substrate activity at OATP1B1 (unknown origin) expressed in HEK293 cells assessed as ratio of drug uptake in absence of transporter inhibitor,estradiol-17beta-glucuronide to drug uptake in presence of transporter inhibitor, estradiol-17beta-glucuronide by LC-MS/MS analysis. The class given is ADME, cell-based.

Terminal nucleotidyltransferase 4B (Homo sapiens), sequence (Q8NDF8 whole entry): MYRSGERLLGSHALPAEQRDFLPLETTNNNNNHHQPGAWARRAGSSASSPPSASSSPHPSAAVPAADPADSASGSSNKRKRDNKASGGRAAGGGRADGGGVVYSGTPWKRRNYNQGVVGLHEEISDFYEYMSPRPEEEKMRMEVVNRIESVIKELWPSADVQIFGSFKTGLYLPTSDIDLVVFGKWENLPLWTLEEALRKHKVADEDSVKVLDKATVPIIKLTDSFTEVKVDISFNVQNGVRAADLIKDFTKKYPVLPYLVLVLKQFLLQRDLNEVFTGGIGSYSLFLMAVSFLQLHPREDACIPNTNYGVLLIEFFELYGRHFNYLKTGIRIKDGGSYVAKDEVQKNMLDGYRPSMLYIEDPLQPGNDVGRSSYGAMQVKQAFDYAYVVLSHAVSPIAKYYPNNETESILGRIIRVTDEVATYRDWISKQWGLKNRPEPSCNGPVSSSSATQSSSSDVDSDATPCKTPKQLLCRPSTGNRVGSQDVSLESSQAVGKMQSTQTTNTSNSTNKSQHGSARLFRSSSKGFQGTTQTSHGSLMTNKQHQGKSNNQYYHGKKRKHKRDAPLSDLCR
Cytochrome P450 2E1, sequence (P05181 whole entry): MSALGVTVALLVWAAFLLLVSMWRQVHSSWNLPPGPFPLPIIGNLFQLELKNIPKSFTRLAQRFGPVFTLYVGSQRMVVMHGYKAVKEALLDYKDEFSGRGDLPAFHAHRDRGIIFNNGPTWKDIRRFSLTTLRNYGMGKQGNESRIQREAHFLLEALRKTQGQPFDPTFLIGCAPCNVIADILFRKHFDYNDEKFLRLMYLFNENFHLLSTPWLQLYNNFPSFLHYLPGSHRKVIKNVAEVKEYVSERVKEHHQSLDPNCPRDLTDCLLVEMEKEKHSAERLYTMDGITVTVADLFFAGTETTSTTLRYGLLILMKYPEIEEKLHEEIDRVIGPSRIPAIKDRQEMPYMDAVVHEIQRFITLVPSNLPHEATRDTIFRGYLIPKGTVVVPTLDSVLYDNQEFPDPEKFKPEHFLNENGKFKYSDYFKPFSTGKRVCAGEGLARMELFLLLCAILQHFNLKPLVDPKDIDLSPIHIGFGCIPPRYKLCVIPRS
Cytochrome P450 2C9, sequence (P11712 whole entry): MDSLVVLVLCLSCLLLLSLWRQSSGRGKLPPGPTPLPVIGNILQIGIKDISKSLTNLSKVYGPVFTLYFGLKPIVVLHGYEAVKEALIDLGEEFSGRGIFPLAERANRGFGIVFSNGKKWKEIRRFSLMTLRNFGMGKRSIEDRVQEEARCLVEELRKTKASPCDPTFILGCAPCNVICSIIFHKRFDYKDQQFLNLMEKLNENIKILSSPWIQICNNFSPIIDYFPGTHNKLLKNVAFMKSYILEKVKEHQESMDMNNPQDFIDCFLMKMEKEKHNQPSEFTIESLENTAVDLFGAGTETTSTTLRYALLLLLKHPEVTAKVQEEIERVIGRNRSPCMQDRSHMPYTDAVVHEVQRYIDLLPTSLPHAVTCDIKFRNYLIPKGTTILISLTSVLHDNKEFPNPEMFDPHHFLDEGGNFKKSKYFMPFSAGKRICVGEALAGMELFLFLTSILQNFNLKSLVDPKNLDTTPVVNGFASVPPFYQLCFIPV
Cytochrome P450 3A4, sequence (P08684 whole entry): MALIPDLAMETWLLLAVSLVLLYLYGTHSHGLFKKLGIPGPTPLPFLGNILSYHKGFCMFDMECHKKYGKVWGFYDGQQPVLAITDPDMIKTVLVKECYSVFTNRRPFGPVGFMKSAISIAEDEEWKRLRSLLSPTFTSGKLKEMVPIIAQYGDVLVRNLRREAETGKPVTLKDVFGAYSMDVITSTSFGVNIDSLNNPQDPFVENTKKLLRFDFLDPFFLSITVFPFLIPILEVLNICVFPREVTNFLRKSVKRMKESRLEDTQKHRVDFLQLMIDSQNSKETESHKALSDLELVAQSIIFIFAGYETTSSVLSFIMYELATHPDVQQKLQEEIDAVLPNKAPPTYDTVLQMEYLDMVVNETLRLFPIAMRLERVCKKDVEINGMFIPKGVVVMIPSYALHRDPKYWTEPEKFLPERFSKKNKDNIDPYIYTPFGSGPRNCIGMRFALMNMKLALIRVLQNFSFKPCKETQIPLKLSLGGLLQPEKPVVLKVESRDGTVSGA

Consider `COc1cc2c(cc1OCCCCCCC(=O)O)C[C@@H](C(C)C)n1cc(C(=O)O)c(=O)cc1-2`, for which, in [1], the Papp A→B (commonly the apparent permeability from the apical to the basolateral side of a cell layer) at 2 h, 1 µM was determined as 0.38 ×10⁻⁶ cm/s. Also, the cytotoxic concentration (CC50) (as a rule, the concentration that lowers cell viability or growth by half) at 96 h in data set [2] is greater than 10 µM. Further, in [3], the basolateral-to-apical permeability (Papp B→A) (commonly how fast a substance crosses the layer from the basolateral side) at 2 h, 1 µM was found to be 0.55 ×10⁻⁶ cm/s. For the same compound, the result in the data set with Hepatitis B virus was Active. In [4], the inhibition entry was “Dose-Dependent Effect”. For the same compound, in [5], the efflux ratio (usually the permeability from basolateral to apical divided by that in the opposite direction, in the common usage) at 2 h, 1 µM was 1.47. The half-life – broadly, the time in which the quantity being followed falls by half – is 28.9 h in [6], 1.48 h in data set [10] and 3.54 h in data set [11]. The basolateral-to-apical permeability (Papp B→A) at 1 h, 10 µM in [7] is 2.06 ×10⁻⁶ cm/s. The efflux ratio at 1 h, 10 µM in data set [8] was determined as 5.3. For the same compound, the negative-log IC50 (pIC50) at Cytochrome P450 1A2, against Cytochrome P450 2C9, against Cytochrome P450 2E1 and at Cytochrome P450 3A4 was less than 5.00 each time. The clearance (commonly the rate of elimination divided by the concentration) in data set [9] came out at 198 mL/min/kg. Besides, the highest concentration (Cmax) (as a rule, the highest concentration seen after dosing) in data set [12] came out at 333 ng/mL. Further, in data set [13], the AUC(0-t) (as a rule, the area under the concentration-time curve up to a stated or last time point) at 24 h stood at 34.7 ng·h/mL. Further, the concentration at 0.5 h in data set [14] was 309 ng/mL and 680 nM. Also, in data set [15], the concentration at 1 h was 300 ng/mL and 660 nM. In addition, the concentration at 4 h in data set [16] is 138 ng/mL and 300 nM. Besides, the figures for the concentration ratio (Kp) in data set [17] and in [18] were 20.7 and 37.7, respectively. For the same compound, the Ratio in data set [19] was found to be 11.17.
